Reference: patent US7718700B2, “Growth factor-binding compounds and methods of use” (Yale University, priority 2004, dated 2010)
pIC50: −log10 of the molar value. Several values for one entry are separate records, joined by “and”; a condition that tells them apart may be missing. Equal values may be shown once. Entries after “also recorded” stand apart in the source; their conditions may differ.

What was measured:
PDGFR = experiment: 125I-PDGF binding to its receptor on NIH 3T3 cells; set-up: species or system mouse; settings: 4° C., 0.5 hours, read-out: IC50 inhibition of [I-125]PDGF binding to its receptor
Procedure: (§1) Flk-1/NIH 3T3, NIH 3T3 and EGFR/NIH 3T3 cells were incubated with ^125I-VEGF, ^125I-PDGF and ^125I-EGF (50,000 cpm/well) respectively, along with increasing concentrations of GFB204. Cells were incubated at 4° C. for 0.5 hours, then washed three times with PBS and three times with lysis buffer prior to determining ^125I counts as described under Materials and Methods. An excess of cold VEGF, PDGF, and EGF was used to obtain non-specific binding levels. FIGS. 2A-2C show specific binding (% control) for PDGFR, Flk-1, and EGFR, respectively.
(§2) Binding of ^125I-growth factors to their receptors. The binding assay of ^125I-VEGF, ^125I-PDGF and ^125I-EGF to their respective receptors was carried out as described previously (Blaskovich, M. A. et al. Nat Biotechnol, 2000, 18:1065-70. Briefly, Flk-1/NIH 3T3 cells, NIH 3T3 cells and EGFR/NIH 3T3 cells were incubated with ^125I-VEGF, ^125I-PDGF and ^125I-EGF (50,000 cpm/well), respectively, and increasing concentrations of GFB204. Cells were incubated at 4° C. for 0.5 hours, then washed three times with PBS and three times with 25 mM Tris, pH 8.0, 1% Triton-X-100, 10% glycerol, and 1% SDS prior to determining ^125I counts on a gamma counter (Beckmann Inc.). An excess of cold growth factors were used to obtain nonspecific binding levels.

EGFR = target: T1, EGFR (Homo sapiens, UniProt P00533); experiment: 125I-EGF binding to its receptor on EGFR/NIH 3T3 cells; settings: concentrations as high as 100 μM
T1 construct: expressed in transfected cells; host or cells: NIH 3T3 (EGFR/NIH 3T3)
Procedure: as §1, §2

VEGF = target: T2, VEGF (Homo sapiens, UniProt P15692); experiment: Tryptophan fluorescence titration of VEGF; type: binding; settings: emission at 334 nm
T2 sequence (P15692 27-191 isoform P15692-4): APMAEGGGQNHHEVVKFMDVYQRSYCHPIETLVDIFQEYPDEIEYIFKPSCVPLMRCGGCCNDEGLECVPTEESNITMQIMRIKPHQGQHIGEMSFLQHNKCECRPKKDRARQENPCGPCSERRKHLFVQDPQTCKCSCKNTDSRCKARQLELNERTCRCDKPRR
Procedure: FIGS. 2D and 2E illustrate that GFB-204 binds PDGF and VEGF as indicated by growth factor tryptophan when increased amounts of GFB204 were added to PDGF and VEGF, respectively. The fluorescence was monitored by excitation at 295 nm and 228 nm, respectively, and emission at 334 nm.
Both VEGF and PDGF contain tryptophans that fluoresce at […] when excited at […].

[1] = tested on: VEGF-stimulated Erk1, Erk2, Akt and STAT3 phosphorylation; experiment: VEGF-stimulated phosphorylation of Erk1/2, Akt and STAT3 in Flk-1/NIH 3T3 cells; type: cell-based, mouse; settings: GFB204 10 μM
Procedure: FIGS. 3A and 3B show the effect of GFB204 on growth factor stimulated Erk1, Erk2, Akt, and STAT3 phosphorylation. GFB204 inhibits VEGF and PDGF stimulation of Flk-1 tyrosine phosphorylation and Erk1/Erk2 phosphorylation (FIG. 3A). NIH 3T3 cells or Flk-1/NIH 3T3 cells were treated with increasing concentrations of GFB204 for 5 minutes prior to stimulation with PDGFBB (10 ng/ml) or VEGF (50 ng/ml), respectively, for 10 minutes. The cells were then lysed and processed for SDS-PAGE Western blotting with an antibody specific for phosphotyrosine-Flk-1 or anti-phosphotyrosine for PDGFR tyrosine phosphorylation or phospho-Erk1/2. GFB204 effects on growth factor-stimulated Erk1, Erk2, Akt and STAT3 phosphorylation (FIG. 3B). NIH 3T3, Flk-1/NIH 3T3, IGF-1R/NIH 3T3 or EGFR/NIH 3T3 cells were treated with GFB204 (10 μM) prior to stimulation with PDGF (NIH 3T3) VEGF (Flk-1/NIH 3T3), EGF (EGFR/NIH 3T3), bFGF (NIH 3T3) or IGF-1 (IGF-1R/NIH 3T3). The cells were then harvested and processed for SDS-PAGE Western blotting with antibodies specific for phospho-Erk1/2, phospho-Akt and phospho-STAT3.
Growth factor-mediated stimulation of phosphorylation of Erk1/2, Akt and STAT3. […]

[2] = tested on: Human middle cerebral artery endothelial cells; experiment: VEGF-induced capillary network formation on Matrigel; type: cell-based; settings: Endothelial cell, VEGF 20 ng/ml
Procedure: FIGS. 4A-4C show the effects of GFB204 on angiogenesis in vitro. GFB204 inhibits capillary network formation in a dose-response manner (FIG. 4C). Human middle cerebral artery endothelial cells (5×10^4) were seeded onto Matrigel and the cells were incubated with VEGF in the presence (FIG. 4B) or absence (FIG. 4A) of GFB204 as described under Materials and Methods.
Capillary network formation. 200 μl of Matrigel was placed into each well of a 24-well culture plate at 4° C. and allowed to polymerize by incubation at 37° C. as described previously (Papadimitriou, E. et al. Biochem Biophys Res Commun, 2001, 282:306-13). Human middle cerebral artery endothelial cells (5×10^4) were seeded on the Matrigel in 1 ml of EBM containing VEGF (20 ng/ml). Each sample was photographed using a 10× objective lens, and quantified the total length of tube structures in each photograph using the Image Pro Plus software (Media Cybernetic, Inc., Md.).

T1 sequence (P00533 25-1210): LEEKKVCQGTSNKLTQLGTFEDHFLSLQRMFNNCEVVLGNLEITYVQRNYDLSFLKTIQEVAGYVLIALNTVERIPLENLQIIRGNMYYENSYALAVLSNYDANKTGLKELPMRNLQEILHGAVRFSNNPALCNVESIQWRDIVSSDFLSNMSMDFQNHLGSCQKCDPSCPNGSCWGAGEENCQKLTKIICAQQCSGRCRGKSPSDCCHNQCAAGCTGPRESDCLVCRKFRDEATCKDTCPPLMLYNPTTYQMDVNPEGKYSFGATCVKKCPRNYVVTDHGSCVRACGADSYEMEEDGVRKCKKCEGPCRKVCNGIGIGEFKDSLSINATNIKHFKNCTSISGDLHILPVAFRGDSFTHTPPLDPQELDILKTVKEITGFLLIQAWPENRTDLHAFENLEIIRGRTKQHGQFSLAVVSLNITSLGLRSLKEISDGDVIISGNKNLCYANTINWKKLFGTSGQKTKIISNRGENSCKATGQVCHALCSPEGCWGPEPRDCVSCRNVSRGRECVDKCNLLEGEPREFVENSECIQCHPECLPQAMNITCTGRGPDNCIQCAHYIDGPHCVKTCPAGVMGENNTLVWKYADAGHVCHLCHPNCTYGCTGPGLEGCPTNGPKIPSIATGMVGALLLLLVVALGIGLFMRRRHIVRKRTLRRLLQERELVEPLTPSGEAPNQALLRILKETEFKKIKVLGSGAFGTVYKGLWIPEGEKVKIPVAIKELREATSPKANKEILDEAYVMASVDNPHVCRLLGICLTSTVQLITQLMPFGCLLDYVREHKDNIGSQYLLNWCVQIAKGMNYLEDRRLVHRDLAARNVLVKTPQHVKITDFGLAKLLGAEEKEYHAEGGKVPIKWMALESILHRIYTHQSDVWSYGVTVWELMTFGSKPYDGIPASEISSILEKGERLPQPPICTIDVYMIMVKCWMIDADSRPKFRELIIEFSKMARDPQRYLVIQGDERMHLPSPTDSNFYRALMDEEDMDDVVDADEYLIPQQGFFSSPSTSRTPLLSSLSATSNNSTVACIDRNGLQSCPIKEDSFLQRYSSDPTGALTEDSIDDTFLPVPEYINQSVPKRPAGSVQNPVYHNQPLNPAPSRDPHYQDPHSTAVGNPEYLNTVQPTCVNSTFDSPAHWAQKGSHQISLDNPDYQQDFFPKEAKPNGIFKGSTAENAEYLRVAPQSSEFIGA

CCCCOc1c2cc(C(=O)Nc3cc(C(=O)O)cc(C(=O)OCc4ccccc4)c3)cc1Cc1cc(C(=O)Nc3cc(C(=O)O)cc(C(=O)OCc4ccccc4)c3)cc(c1OCCCC)Cc1cc(C(=O)Nc3cc(C(=O)O)cc(C(=O)OCc4ccccc4)c3)cc(c1OCCCC)Cc1cc(C(=O)Nc3cc(C(=O)O)cc(C(=O)OCc4ccccc4)c3)cc(c1OCCCC)C2 [GFB204]
pIC50 (PDGFR): 6.81 and 6.30 to 6.70 | [I-125]EGF binding to its receptor (EGFR): not affected | binding to VEGF by tryptophan fluorescence titration (VEGF): binds both PDGF and VEGF | VEGF-stimulation of the phosphorylation of Erk1, Erk2, Akt and STAT3 [1]: blocked; also recorded: inhibited | pIC50 [2]: 6.15
